Data published in patent publication US12281149B2, “Modulators of G-protein coupled receptors” (priority 2021, dated 2025).
*1 amine or outer side, *2 acyl side, *3 side chain or, on linkers, in order; H or OH if unused. Where a SMILES comes first, the peptide text is derived from it. Side-chain parts run from the residue outwards. [ ]: non-standard residue; d: D form. The star is where a group is joined. Isobutyryl(2-(3-CN-5-F-Ph)) = CC(C)(C(=O)*)c1cc(F)cc(C#N)c1; C20 diacid = O=C(O)CCCCCCCCCCCCCCCCCCC(=O)*; γGlu = O=C(O)[C@H](CCC(=O)[*:2])N[*:1]; NMeβAla = CN(CCC(=O)[*:2])[*:1]; X2 = CC(C)(C(=O)*)c1cccc(F)c1; d(β3hA) = C[C@@H](N)CC(=O)O; AEEA = NCCOCCOCC(=O)O; Aib = CC(C)(N)C(=O)O; βAla = NCCC(=O)O

How the values were obtained:
Type in all cases: cell-based
GIP receptor [1] = biological target: T1, GIP receptor (Homo sapiens, UniProt P48546); experiment: HitHunter cAMP assay, GIP receptor; conditions: for EC50: CHO cells stably expressing GIP receptor, cAMP accumulation, 30 min, read-out: EC50 GIP-1R; for Emax: CHO cells, cAMP, normalized to maximum signal from GIP (high) and DMSO (low), read-out: Emax GIP-1R
T1 sequence (P48546 22-466): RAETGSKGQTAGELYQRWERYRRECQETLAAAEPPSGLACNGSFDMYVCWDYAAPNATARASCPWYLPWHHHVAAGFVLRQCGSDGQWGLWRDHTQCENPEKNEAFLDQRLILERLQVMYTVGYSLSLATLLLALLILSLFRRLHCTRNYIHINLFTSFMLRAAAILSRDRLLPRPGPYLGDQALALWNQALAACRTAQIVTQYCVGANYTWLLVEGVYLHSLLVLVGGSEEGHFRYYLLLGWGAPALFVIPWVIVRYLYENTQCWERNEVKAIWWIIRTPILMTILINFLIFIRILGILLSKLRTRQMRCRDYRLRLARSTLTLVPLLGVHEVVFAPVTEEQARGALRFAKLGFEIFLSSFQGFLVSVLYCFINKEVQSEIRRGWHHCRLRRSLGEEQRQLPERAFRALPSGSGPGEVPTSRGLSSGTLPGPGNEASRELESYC

GLP-1 receptor [2] = biological target: T2, GLP-1 receptor (Homo sapiens, UniProt P43220); experiment: PathHunter β-arrestin assay, GLP-1 receptor; design: host or cells: PathHunter CHO-K1 GLP1R β-Arrestin Cell Line; conditions: β-arrestin-2 recruitment, PathHunter CHO-K1 GLP1R β-Arrestin Cell Line, 90 min at 37° C.; normalized to GLP-1; read-out: GLP-1R β Arrestin EC50
T2 sequence (P43220 24-463): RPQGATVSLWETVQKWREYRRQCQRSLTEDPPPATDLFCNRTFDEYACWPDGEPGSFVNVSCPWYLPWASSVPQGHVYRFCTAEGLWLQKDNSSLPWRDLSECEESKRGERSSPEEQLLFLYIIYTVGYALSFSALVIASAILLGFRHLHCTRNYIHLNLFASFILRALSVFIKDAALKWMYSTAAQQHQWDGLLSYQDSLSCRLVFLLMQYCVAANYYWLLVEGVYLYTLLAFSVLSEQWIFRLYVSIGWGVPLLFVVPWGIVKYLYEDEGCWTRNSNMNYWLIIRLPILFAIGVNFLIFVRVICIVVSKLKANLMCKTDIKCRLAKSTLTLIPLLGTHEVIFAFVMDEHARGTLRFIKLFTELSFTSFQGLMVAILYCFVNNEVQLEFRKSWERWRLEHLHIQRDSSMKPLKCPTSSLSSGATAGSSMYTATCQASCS

GIP receptor [3] = biological target: T1, GIP receptor; experiment: PathHunter β-arrestin assay, GIP receptor; design: host or cells: PathHunter CHO-K1 GIPR β-Arrestin Cell Line; conditions: β-arrestin-2 recruitment, PathHunter CHO-K1 GIPR β-Arrestin Cell Line, 90 min at 37° C.; normalized to GIP; read-out: GIPR β Arrestin EC50
GLP-1 receptor [4] = biological target: T2, GLP-1 receptor; experiment: HitHunter cAMP assay, GLP-1 receptor; conditions: for EC50: CHO cells stably expressing human GLP-1 receptor, cAMP accumulation, 30 min, read-out: EC50 GLP-1R; for Emax: CHO cells, cAMP, normalized to maximum signal from GLP-1 (high) and DMSO (low), read-out: Emax GLP-1R

SMILES | EC50 (GIP receptor [1]) [nM] | Emax (GIP receptor [1]) [%] | EC50 (GLP-1 receptor [2]) [nM] | EC50 (GIP receptor [3]) [nM] | EC50 (GLP-1 receptor [4]) [nM] | Emax (GLP-1 receptor [4]) [%]
CC[C@H](C)[C@H](NC(=O)[C@H](CC(C)C)NC(=O)[C@H](Cc1c[nH]c2ccccc12)NC(=O)[C@H](CCC(N)=O)NC(=O)[C@@H](NC(=O)[C@H](Cc1ccccc1)NC(=O)[C@H](C)NC(=O)[C@H](CCCCNC(=O)COCCOCCNC(=O)COCCOCCNC(=O)CC[C@H](NC(=O)CCCCCCCCCCCCCCCCCCC(=O)O)C(=O)O)NC(=O)[C@H](CCC(N)=O)NC(=O)[C@H](C)NC(=O)[C@@H](NC(=O)[C@H](CCCCN)NC(=O)[C@H](CC(=O)O)NC(=O)[C@H](CC(C)C)NC(=O)C(C)(C)NC(=O)[C@@H](NC(=O)[C@H](CO)NC(=O)[C@H](Cc1ccc(O)cc1)NC(=O)[C@H](CC(=O)O)NC(=O)[C@H](CO)NC(=O)[C@@H](NC(=O)[C@H](Cc1ccccc1)NC(=O)[C@@H](NC(=O)CNC(=O)[C@H](CCC(=O)O)NC(=O)CCN(C)C(=O)C(C)(C)c1cc(F)cc(C#N)c1)[C@@H](C)O)[C@@H](C)O)[C@@H](C)CC)[C@@H](C)CC)C(C)C)C(=O)N[C@@H](C)C(=O)NCC(=O)NCC(=O)N1CCC[C@H]1C(=O)N[C@@H](CO)C(=O)N[C@@H](CO)C(=O)NCC(=O)N[C@@H](C)C(=O)N1CCC[C@H]1C(=O)N1CCC[C@H]1C(=O)N1CCC[C@H]1C(=O)N[C@@H](CO)C(N)=O [Compound 201] ({Isobutyryl(2-(3-CN-5-F-Ph))}-[NMeβAla]EGTFTSDYSI[Aib]LDKIAQK([AEEA-AEEA-γGlu-C20 diacid])AFVQWLIAGGPSSGAPPPS-NH2) | 100 to 1000 | 107 | > 1000 | > 1000 | 10 to 100 | 108
CC[C@H](C)[C@H](NC(=O)[C@H](CC(C)C)NC(=O)[C@H](Cc1c[nH]c2ccccc12)NC(=O)[C@H](CCC(N)=O)NC(=O)[C@@H](NC(=O)[C@H](Cc1ccccc1)NC(=O)[C@H](C)NC(=O)[C@H](CCCCNC(=O)COCCOCCNC(=O)COCCOCCNC(=O)CC[C@H](NC(=O)CCCCCCCCCCCCCCCCCCC(=O)O)C(=O)O)NC(=O)[C@H](CCC(N)=O)NC(=O)[C@H](C)NC(=O)[C@@H](NC(=O)[C@H](CCCCN)NC(=O)[C@H](CC(=O)O)NC(=O)[C@H](CC(C)C)NC(=O)C(C)(C)NC(=O)[C@@H](NC(=O)[C@H](CO)NC(=O)[C@H](Cc1ccc(O)cc1)NC(=O)[C@H](CC(=O)O)NC(=O)[C@H](CO)NC(=O)[C@@H](NC(=O)[C@H](Cc1ccccc1)NC(=O)[C@@H](NC(=O)CNC(=O)[C@H](CCC(=O)O)NC(=O)CCNC(=O)C(C)(C)c1cccc(F)c1)[C@@H](C)O)[C@@H](C)O)[C@@H](C)CC)[C@@H](C)CC)C(C)C)C(=O)N[C@@H](C)C(=O)NCC(=O)NCC(=O)N1CCC[C@H]1C(=O)N[C@@H](CO)C(=O)N[C@@H](CO)C(=O)NCC(=O)N[C@@H](C)C(=O)N1CCC[C@H]1C(=O)N1CCC[C@H]1C(=O)N1CCC[C@H]1C(=O)N[C@@H](CO)C(N)=O [Compound 240] ({X2-βAla}-EGTFTSDYSI[Aib]LDKIAQK([AEEA-AEEA-γGlu-C20 diacid])AFVQWLIAGGPSSGAPPPS-NH2) | 1 to 10 | 95 | < 1000 | < 1000 | < 0.1 | 93
CC[C@H](C)[C@H](NC(=O)[C@H](CO)NC(=O)[C@H](Cc1ccc(O)cc1)NC(=O)[C@H](CC(=O)O)NC(=O)[C@H](CO)NC(=O)[C@@H](NC(=O)[C@H](Cc1ccccc1)NC(=O)[C@@H](NC(=O)CNC(=O)[C@H](CCC(=O)O)NC(=O)CCNC(=O)[C@]1(c2ccccc2)CNC(=O)C1)[C@@H](C)O)[C@@H](C)O)C(=O)N[C@@H](Cc1ccc(O)cc1)C(=O)N[C@@H](CC(C)C)C(=O)N[C@@H](CC(=O)O)C(=O)N[C@@H](CCCCN)C(=O)N[C@@H](CCC(N)=O)C(=O)N[C@@H](C)C(=O)N[C@@H](C)C(=O)N[C@@H](CCCCNC(=O)COCCOCCNC(=O)COCCOCCNC(=O)CC[C@H](NC(=O)CCCCCCCCCCCCCCCCCCC(=O)O)C(=O)O)C(=O)N[C@@H](CCC(=O)O)C(=O)N[C@@H](Cc1ccccc1)C(=O)N[C@H](C(=O)N[C@@H](CC(N)=O)C(=O)N[C@@H](Cc1c[nH]c2ccccc12)C(=O)N[C@@H](CC(C)C)C(=O)N[C@@H](CC(C)C)C(=O)N[C@@H](C)C(=O)NCC(=O)NCC(=O)N1CCC[C@H]1C(=O)N[C@@H](CO)C(=O)N[C@@H](CO)C(=O)NCC(=O)N[C@@H](C)C(=O)N1CCC[C@H]1C(=O)N1CCC[C@H]1C(=O)N1CCC[C@H]1C(=O)N[C@@H](CO)C(N)=O)C(C)C (single isomer, unassigned) [Compound 128] | 10 to 100 | 101 | > 1000 | > 1000 | 1 to 10 | 99
CC[C@H](C)[C@H](NC(=O)[C@H](CO)NC(=O)[C@H](Cc1ccc(O)cc1)NC(=O)[C@H](CC(=O)O)NC(=O)[C@H](CO)NC(=O)[C@@H](NC(=O)[C@](C)(Cc1ccccc1F)NC(=O)[C@@H](NC(=O)CNC(=O)[C@H](CCC(=O)O)NC(=O)CCNC(=O)C1(c2ccc(Cl)cc2)CCCC1)[C@@H](C)O)[C@@H](C)O)C(=O)N[C@@H](Cc1ccc(O)cc1)C(=O)N[C@@H](CC(C)C)C(=O)N[C@@H](CC(=O)O)C(=O)N[C@@H](CCCCN)C(=O)N[C@@H](CCC(N)=O)C(=O)N[C@@H](C)C(=O)N[C@@H](C)C(=O)NC(C)(C)C(=O)N[C@@H](CCC(=O)O)C(=O)N[C@@H](Cc1ccccc1)C(=O)N[C@H](C(=O)N[C@@H](CC(N)=O)C(=O)N[C@@H](Cc1c[nH]c2ccccc12)C(=O)N[C@@H](CC(C)C)C(=O)N[C@@H](CC(C)C)C(=O)N[C@@H](C)C(=O)NCC(=O)NCC(=O)N1CCC[C@H]1C(=O)N[C@@H](CO)C(=O)N[C@@H](CO)C(=O)NCC(=O)N[C@@H](C)C(=O)N1CCC[C@H]1C(=O)N1CCC[C@H]1C(=O)N1CCC[C@H]1C(=O)N[C@@H](CO)C(=O)N[C@@H](CCCCNC(=O)COCCOCCNC(=O)COCCOCCNC(=O)CC[C@H](NC(=O)CCCCCCCCCCCCCCCCCCC(=O)O)C(=O)O)C(N)=O)C(C)C [Compound 141] | 0.1 to 1 | 108 | > 1000 | < 1000 | 0.1 to 1 | 97
CC[C@H](C)[C@H](NC(=O)[C@H](CC(C)C)NC(=O)[C@H](Cc1c[nH]c2ccccc12)NC(=O)[C@H](CCC(N)=O)NC(=O)[C@@H](NC(=O)[C@H](Cc1ccccc1)NC(=O)[C@H](C)NC(=O)[C@H](CCCCNC(=O)COCCOCCNC(=O)COCCOCCNC(=O)CC[C@H](NC(=O)CCCCCCCCCCCCCCCCCCC(=O)O)C(=O)O)NC(=O)[C@H](CCC(N)=O)NC(=O)[C@H](C)NC(=O)[C@@H](NC(=O)[C@H](CCCCN)NC(=O)[C@H](CC(=O)O)NC(=O)[C@H](CC(C)C)NC(=O)C(C)(C)NC(=O)[C@@H](NC(=O)[C@H](CO)NC(=O)[C@H](Cc1ccc(O)cc1)NC(=O)[C@H](CC(=O)O)NC(=O)[C@H](CO)NC(=O)[C@@H](NC(=O)[C@H](Cc1ccccc1)NC(=O)[C@@H](NC(=O)CNC(=O)[C@H](CCC(=O)O)NC(=O)C[C@@H](C)NC(=O)C(C)(C)c1cc(F)cc(C#N)c1)[C@@H](C)O)[C@@H](C)O)[C@@H](C)CC)[C@@H](C)CC)C(C)C)C(=O)N[C@@H](C)C(=O)NCC(=O)NCC(=O)N1CCC[C@H]1C(=O)N[C@@H](CO)C(=O)N[C@@H](CO)C(=O)NCC(=O)N[C@@H](C)C(=O)N1CCC[C@H]1C(=O)N1CCC[C@H]1C(=O)N1CCC[C@H]1C(=O)N[C@@H](CO)C(N)=O [Compound 223] ({Isobutyryl(2-(3-CN-5-F-Ph))}-[d(β3hA)]EGTFTSDYSI[Aib]LDKIAQK([AEEA-AEEA-γGlu-C20 diacid])AFVQWLIAGGPSSGAPPPS-NH2) | 100 to 1000 | 42 | > 1000 | > 1000 | 10 to 100 | 96
